# From US20240165137A1, “METHODS FOR IMPROVING MUSCLE STRENGTH AND MOBILITY” (Intrinsic Medicine, Inc., priority 2020, published 2024)
# System: CEBPB expression in LPS-stimulated THP-1 cells
# Experiment: Nascent RNA sequencing of LPS-stimulated THP-1 cells (CEBPB expression)
# Format: cell-based
# Settings: 10 ng/mL LPS and 250 μM 2′FL
# Experimental: THP-1 Cells were treated with 10 ng/mL LPS or 10 ng/mL LPS and 250 μM 2′FL and extracted for nascent RNAs at 30 min and 24 hours. The nascent RNAs were sequenced and analyzed as described in Azofeifa et al. (2018), Genome Res. 28: 334-344; the contents of which are expressly incorporated by reference herein.
compound,measurement,setting,value
"CC1O[C@@H](OC2[C@H](O[C@H]3C(O)C(O)C(O)O[C@H]3CO)OC(CO)[C@H](O)[C@@H]2O)C(O)[C@@H](O)[C@@H]1O (stereo partly drawn) [2′FL, 2′-fucosyllactose]","CEBPB maximum enrichment score (nascent RNAs, 2′FL+LPS versus LPS alone)",30 min,40
same,"CEBPB maximum enrichment score (nascent RNAs, 2′FL+LPS versus LPS alone)",24 hours,20
same,"CEBPB expression (nascent RNAs, 2′FL+LPS versus LPS alone)",both the 30 min and 24 hour time points,enhanced and upregulated
